15 molecules from PubChem BioAssay (NCI) can be followed below.

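Tested at 5 concentrations; 48 h exposure; 96-well plates; endpoints linearly interpolated, else capped at highest concentration. GI50 marks 50% less growth. At the TGI there is no net growth.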 Where only a bound is given, the exact number is not on record here.

Among the test systems are KM20L2 colon; M19-MEL melanoma; TK-10 renal; 786-0 renal; RPMI-8226 leukemia; BT-549 breast; DU-145 prostate; HS 578T breast; MCF7 breast; MDA-N; PC-3 prostate; T-47D breast.
Experiment in all cases: NCI anticancer screen, dose series, 48 h

Turning to `N#CC(Nc1cccc(C(F)(F)F)c1)c1ccccc1C(F)(F)F` (stereo not drawn), the TGI came to 28.4 µM in the experiment with KM20L2 colon, 18 µM in the experiment on M19-MEL melanoma and 27.9 µM in the experiment with TK-10 renal.

Regarding `c1ccc(N=c2nc(N3CCOCC3)ss2)cc1`, the TGI with 786-0 renal was 30.1 µM; in the experiment with KM20L2 colon it was 31.4 µM; with M19-MEL melanoma, 32 µM; in the experiment with TK-10 renal it was above 100 µM.

Take `CCOc1ccc(/C(C=O)=C(\Cl)c2ccc(OC)c(OC)c2)cc1`: the TGI in the experiment on KM20L2 colon, in the experiment on M19-MEL melanoma, with RPMI-8226 leukemia and in the experiment on TK-10 renal was above 100 µM in each case.

With `CCCC(N)C(=O)c1ccccc1` (stereo not drawn), the TGI with 786-0 renal, in the experiment with KM20L2 colon, in the experiment with RPMI-8226 leukemia and in the experiment on TK-10 renal was above 100 µM each time.

In the case of `Cc1cc2c(C(C)C)c(O)c(O)c(C=NCCO)c2c(O)c1-c1c(C)cc2c(C(C)C)c(O)c(O)c(C=NCCO)c2c1O`, the TGI was 4.83 µM in the experiment with 786-0 renal, 3.62 µM with M19-MEL melanoma, 4.9 µM in the experiment on RPMI-8226 leukemia and 18.4 µM in the experiment with TK-10 renal.

As for `O=C(Nc1ccc(Sc2ccc(N=Nc3c(O)c(S(=O)(=O)O)cc4cc(S(=O)(=O)O)ccc34)cc2)cc1)c1ccc(N=Nc2c(O)ccc3c(S(=O)(=O)O)cc(S(=O)(=O)O)cc23)cc1`, the TGI with 786-0 renal is above 100 µM; with KM20L2 colon it was above 100 µM; with M19-MEL melanoma it was 68.6 µM; with RPMI-8226 leukemia, 73.4 µM; in the experiment on TK-10 renal, above 100 µM.

Regarding `O=C(Nc1c(C(=O)NC2CCCCC2)[nH]c(=O)[nH]c1=O)c1ccc(Cl)cc1`, the TGI with M19-MEL melanoma, in the experiment with RPMI-8226 leukemia and in the experiment on TK-10 renal was above 100 µM throughout.

For the molecule `CC(=O)O[C@H]1C=CC(=O)C(C)CC1C` (stereo partly drawn), the TGI in the experiment on KM20L2 colon, in the experiment with M19-MEL melanoma and in the experiment on TK-10 renal was above 100 µM each time.

As for `CCC(=O)NC(Nc1cccc(F)c1)(C(F)(F)F)C(F)(F)F`, the TGI with BT-549 breast, with DU-145 prostate, with HS 578T breast, with MCF7 breast, in the experiment on MDA-N and in the experiment on PC-3 prostate was above 100 µM throughout. In addition, the TGI with RPMI-8226 leukemia, in the experiment on T-47D breast and in the experiment on TK-10 renal was above 100 µM throughout.

Turning to `Clc1ccc(CNc2nc(Cl)c3[nH]cnc3n2)cc1Cl`, the TGI in the experiment with 786-0 renal was above 100 µM; with BT-549 breast it was 84.5 µM; with DU-145 prostate it was above 100 µM; in the experiment on HS 578T breast, 50.8 µM; with MCF7 breast, 84.5 µM; in the experiment on MDA-N, above 100 µM. In addition, the figures for the TGI with PC-3 prostate, with T-47D breast and with TK-10 renal were above 100 µM, 51.3 µM and 84.7 µM, respectively.

As to `COc1ccc(-c2nn(-c3cccc(NC(=O)Nc4ccccc4)c3)cc2-c2ccncc2)cc1Cl`, the GI50 in the experiment on DU-145 prostate is 2.47 µM; with HS 578T breast, 2.46 µM; in the experiment on MCF7 breast, 2.07 µM; in the experiment with PC-3 prostate, 1.84 µM; with RPMI-8226 leukemia it was 2.14 µM; in the experiment with T-47D breast, 2.19 µM. Moreover, the TGI in the experiment with DU-145 prostate was found to be 5.87 µM; in the experiment on HS 578T breast, 7.94 µM; in the experiment on MCF7 breast, 4.91 µM; with PC-3 prostate it was 4.5 µM; in the experiment with RPMI-8226 leukemia, 5.83 µM; in the experiment with T-47D breast it was 5.39 µM.

With `NC1(C(=O)O)CCc2ccc(N(CCCl)CCCl)cc2C1` (stereo not drawn), the TGI in the experiment with KM20L2 colon, in the experiment with M19-MEL melanoma, in the experiment with MCF7 breast and in the experiment with RPMI-8226 leukemia was above 100 µM in each case.

Take `CN1C[C@H]2[C@@H](C1=O)[C@H](c1ccccc1)ON2C`: the TGI with DU-145 prostate, in the experiment on HS 578T breast, in the experiment with MCF7 breast, with MDA-N, in the experiment on PC-3 prostate and in the experiment on RPMI-8226 leukemia was above 100 µM throughout. The TGI in the experiment on T-47D breast and in the experiment with TK-10 renal was above 100 µM in each case.

Consider `O=C(O)C1CCC(=O)N1S(=O)(=O)c1ccccc1` (stereo not drawn), for which the TGI in the experiment with KM20L2 colon, in the experiment with M19-MEL melanoma, in the experiment with MCF7 breast and with RPMI-8226 leukemia was above 100 µM throughout.

For the molecule `Fc1ccc(-c2nn3c(-c4cc(C(F)(F)F)cc(C(F)(F)F)c4)nnc3s2)cc1`, the GI50 in the experiment on BT-549 breast was above 50 µM; in the experiment on DU-145 prostate, above 50 µM; in the experiment on HS 578T breast, 1.76 µM; with MCF7 breast, above 50 µM; in the experiment on PC-3 prostate, above 50 µM; in the experiment on RPMI-8226 leukemia, above 50 µM. The TGI in the experiment on BT-549 breast, with DU-145 prostate, in the experiment with HS 578T breast, with MCF7 breast, in the experiment on PC-3 prostate and with RPMI-8226 leukemia was above 50 µM throughout.
